“Also recorded” adds a separate entry of the source. Like-named read-outs stand apart in the source and are kept apart here. Marks after values point to notes of the source that are not given here.
Legend:
[1] = Uterine and vaginal weight in ovariectomized BALB/c mice treated orally for 9 days with or without estrone (Example 3); assay type: in vivo; settings: for inhibition of estrone-stimulated uterine weight / inhibition of vaginal weight (estrone-stimulated): OVX mice + estrone, oral 9 days
Method in brief: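 OVX BALB/c mice (18-20 g) were dosed orally by gavage once daily for 9 days from day 2 post-OVX, with or without estrone s.c. twice daily from day 5 for 6 days. The vehicle was 4% ethanol in 0.4% methylcellulose. Uterine and vaginal weights were taken on the 11th morning after OVX.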

[2] = Endometrial epithelium thickness in OVX nude mice after 161 days of antiestrogen (Example 8); assay type: in vivo
Method in brief: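 OVX nude mice received antiestrogen with or without an estrone implant; controls were OVX and OVX+Estrone. Antiestrogens were given as suspensions for 161 days. Uteri were then collected and H&E sections analysed by image analysis for mean endometrial epithelial cell height.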

[3] = test system: ZR-75-1 human breast cancer xenografts; assay: Tamoxifen and EM-652.HCl alone or combined on growth of ZR-75-1 xenografts in nude mice (FIG. 7); assay type: in vivo; settings: hydrochloride
[4] = 9-month treatment with DHEA and/or EM-800 in the rat: urinary and serum markers of bone metabolism; assay type: in vivo
Excerpt: It is particularly important to indicate that the combination of DHEA and EM-800 exerted unexpected beneficial effects on important biochemical parameters of bone metabolism. […] Moreover, no effect of DHEA could be detected on daily urinary calcium or phosphorus excretion (Luo et al., 1997). EM-800 decreased the urinary hydroxyproline/creatinine ratio by 48% while, similarly to DHEA, no effect of EM-800 was seen on urinary calcium or phosphorus excretion. EM-800, moreover, had no effect on serum alkaline phosphatase activity, a marker of bone formation while DHEA increased the value of the parameter by about 75% (Luo et al., 1997).

[5] = Uterine, vaginal and body weight in estrone-supplemented OVX nude mice (Example 1); assay type: in vivo
Procedure: DHEA was dissolved in 50% ethanol 50% propylene glycol. […] Tumors were measured once a week with Vernier calipers.

[6] = 10% DHEA cream once daily for 12 months in 60 to 70 year old women; assay type: in vivo
Excerpt: The use of estrogen replacement therapy requires the addition of progestins to counteract the endometrial proliferation induced by estrogens while both estrogens and progestins could increase the risk of breast cancer (Bardon et al., 1985; Colditz et al., 1995). In order to avoid the limitations of standard estrogen (ERT) or hormonal replacement therapy (HRT), we have studied the effect of DHEA administration to 60 to 70 year old women for 12 months on bone mineral density, parameters of bone formation and turnover, serum lipids, glucose and insulin, adipose tissue mass, muscular mass, energy, well-being as well as on vaginal and endometrial histology (Diamond et al., 1996; Labrie et al., 1997c). DHEA was administered percutaneously to avoid first passage of the steroid precursor through the liver.
We have thus evaluated the effect of chronic replacement therapy with a 10% DHEA cream applied once daily for 12 months in 60 to 70 year old women (N=15). […] These changes in bone mineral density were accompanied by significant decreases at 12 months of 38% and 22% in urinary hydroxyproline and in plasma bone alkaline phosphatase, respectively (all p<0.05).

[7] = cited from earlier work
[8] = 6 months; cited from earlier work
[9] = OVX mice, absence of estrone, 10 μg daily (no-effect statements: 1 μg and 10 μg)
[10] = DHEA 10 mg, EM-800 75 μg, alone or combined

CC1=C(c2ccc(O)cc2)[C@H](c2ccc(OCCN3CCCCC3)cc2)Oc2cc(O)ccc21.Cl [EM-652.HCl, (S)-(+)-7-hydroxy-3-(4′-hydroxyphenyl)-4-methyl-2-(4″-(2′″-piperidinoethoxy)phenyl)-2H-1-benzopyran hydrochloride]
inhibition of estrone-stimulated uterine weight ([1]; 1 μg daily): 24%
inhibition of vaginal weight (estrone-stimulated) ([1]; 1 μg daily): 10%
inhibition of estrone-stimulated uterine weight ([1]; 3 μg daily): 48%
inhibition of vaginal weight (estrone-stimulated) ([1]; 3 μg daily): 25%
inhibition of estrone-stimulated uterine weight ([1]; 10 μg daily): 72%
inhibition of vaginal weight (estrone-stimulated) ([1]; 10 μg daily): 53%
stimulation of uterine weight (estrogenic effect) [1, 9]: no significant stimulatory effect
stimulation of vaginal weight (estrogenic effect) [1, 9]: no significant stimulatory effect
inhibition of the stimulatory effect of estrone on epithelial height ([2]; 50 μg daily oral, estrone stimulation): 70%
height of uterine epithelial cells, % of the OVX control group value ([2]; 200 μg daily, absence of estrone): 114%
ENDOMETRIAL EPITHELIUM THICKNESS (μm) ± SEM ([2]; OVX + E1, antiestrogen 50 μg daily): 25.06^b ± 0.07 μm
ENDOMETRIAL EPITHELIUM THICKNESS (μm) ± SEM ([2]; OVX without E1, antiestrogen 200 μg daily): 20.79 ± 0.10 μm
effect on growth of ZR-75-1 xenografts [3]: did not exert any stimulatory effect; also recorded: no effect on tumor growth

C[C@]12CC[C@H](O)CC1=CC[C@@H]1[C@@H]2CC[C@]2(C)C(=O)CC[C@@H]12 [DHEA, dehydroepiandrosterone]
decrease of urinary hydroxyproline/creatinine ratio (marker of bone resorption) [4]: did not affect; also recorded: did not show any effect
effect on daily urinary calcium or phosphorus excretion [4]: no effect
increase of serum alkaline phosphatase activity (marker of bone formation) [4]: about 75%
Serum tALP [4, 10]: 198.38 ± 30.76 IU/L
Urine HP/Cr [4, 10]: 14.02 ± 1.59 μmol/mmol
Urine calcium [4, 10]: 25.87 ± 3.54 μmol/24 h/100 g
Urine phosphorus [4, 10]: 151.41 ± 14.57 μmol/24 h/100 g
effect on body weight adjusted for tumor weight ([5]; 9.5 months): No significant effect
inhibition of the stimulatory effect of estrone on uterine weight ([5]; highest dose of DHEA used): 26%
decrease in fasting plasma insulin levels [6]: 17%
decrease in plasma bone alkaline phosphatase [6]: 22%
decrease in subcutaneous skin fold thickness [6]: 9.8%
decrease in urinary hydroxyproline [6]: 38%
decrease of fasting plasma glucose [6]: 12%
decrease of femoral fat (mid-thigh, computed tomography) [6]: 3.8%
effect on the endometrium [6]: remained completely atrophic
increase in femoral muscular area [6]: 3.5%
increase of bone mass density at the hip [6]: 2.3%
increase of bone mass density at the hip Ward's triangle [6]: 3.75%
increase of bone mass density at the lumbar spine level [6]: 2.2%
increase of the index of sebum secretion [6]: 79%
increase over control in plasma osteocalcin [6]: 135%
women with stimulated vaginal epithelium maturation among those with a maturation value of zero at onset [6]: 8 out of 10
decrease of abdominal subcutaneous fat ([7]; both women and men): 6%
decrease of responsiveness of serum insulin to the glucose tolerance test ([7]; in vivo): 13%
improvement in the insulin sensitivity index ([7]; in vivo): 34%
decrease of abdominal visceral fat ([7]; men): 7.4%
decrease of abdominal visceral fat ([7]; women): 10.2%
decrease of total body fat mass [8]: 1.4 kg
increase of fat-free mass [8]: 0.9 kg

From patent publication US11452731B2, “Method of treating and preventing loss of cognition” (ENDORECHERCHE, INC., priority 2009, dated 2022)
